{"source": "paper PMC10530293", "about": "“Supramolecular multivalency effects enhance imine formation in aqueous medium allowing for dynamic modification of enzymatic activity” (Chemical Science, 2023)", "target": "T1, carbonic anhydrase (CA) from bovine erythrocytes (Bos taurus, UniProt P00921)", "T1 construct": "gene CA2; native full-length enzyme from bovine erythrocytes, N-terminal Ser1, 18 Lys", "T1 sequence (P00921 2-260)": "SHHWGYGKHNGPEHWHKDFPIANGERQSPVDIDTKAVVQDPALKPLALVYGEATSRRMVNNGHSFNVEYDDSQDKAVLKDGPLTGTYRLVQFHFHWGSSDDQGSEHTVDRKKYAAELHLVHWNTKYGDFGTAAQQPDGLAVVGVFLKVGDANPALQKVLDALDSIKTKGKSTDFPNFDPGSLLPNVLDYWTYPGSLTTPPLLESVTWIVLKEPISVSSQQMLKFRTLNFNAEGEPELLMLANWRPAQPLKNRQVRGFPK", "assay": "UV monitoring of 4-nitrophenyl acetate hydrolysis (esterase activity)", "assay_type": "biochemical", "settings": "read-out: apparent IC50"}
{"smiles": "O=Cc1c(F)c(F)c(SC[C@H](NC(=O)OCc2ccccc2)C(=O)O)c(F)c1F", "note": "[A8]", "values": [{"measurement": "IC50", "result": "~1000", "unit": "nM"}]}
